Values of other authors as cited in patent US8759404B2, “Intravenous propofol emulsion compositions having preservative efficacy” (Bharat Serums & Vaccines Ltd., priority 2005, dated 2014).

Compound	Oral LD50 in rats (rats; oral)	LD50 (rats; administered orally)	solubility in aqueous media (aqueous media)	solubility in fat solvents (chloroform, benzene, ethanol, or acetone)
CCCCCCCCCC(=O)O [Capric acid, Decanoic acid]	more than 10,000 mg/kg	–	–	–
CCCCCCCCCCCC(=O)OCC(O)CO (stereo not shown) [Monolaurin, monoglyceryl ester of lauric acid]	–	about 53,000 mg/kg body weight	insoluble	highly soluble
